# Measured values reported in patent US20100184677A1, “USE OF THE HUMAN PANCREATIC POLYPEPTIDE AS A THERAPEUTIC AGENT” (priority 2007, published 2010).
# Tested on: drug-resistant Mycobacterium tuberculosis
# Settings: peptide 10 micrograms per ml, seven days
compound,measurement,value
CC[C@H](C)[C@H](NC(=O)[C@H](Cc1ccc(O)cc1)NC(=O)[C@H](CCCNC(=N)N)NC(=O)[C@H](CCCNC(=N)N)NC(=O)[C@H](CC(C)C)NC(=O)[C@H](CC(=O)O)NC(=O)[C@H](C)NC(=O)[C@H](C)NC(=O)[C@H](Cc1ccc(O)cc1)NC(=O)[C@H](CCC(N)=O)NC(=O)[C@H](C)NC(=O)[C@H](CCSC)NC(=O)[C@H](CCC(N)=O)NC(=O)[C@H](CCC(=O)O)NC(=O)[C@@H]1CCCN1C(=O)[C@@H](NC(=O)[C@H](C)NC(=O)[C@H](CC(N)=O)NC(=O)[C@H](CC(=O)O)NC(=O)CNC(=O)[C@@H]1CCCN1C(=O)[C@H](Cc1ccc(O)cc1)NC(=O)[C@@H](NC(=O)[C@@H]1CCCN1C(=O)[C@H](CCC(=O)O)NC(=O)[C@H](CC(C)C)NC(=O)[C@@H]1CCCN1C(=O)[C@H](C)N)C(C)C)[C@@H](C)O)C(=O)N[C@@H](CC(N)=O)C(=O)N[C@@H](CCSC)C(=O)N[C@@H](CC(C)C)C(=O)N[C@H](C(=O)N[C@@H](CCCNC(=N)N)C(=O)N1CCC[C@H]1C(=O)N[C@@H](CCCNC(=N)N)C(=O)N[C@@H](Cc1ccc(O)cc1)C(N)=O)[C@@H](C)O [Pancreatic polypeptide],% inhibition,0.0%
